Measurements from US8247211B2, “Glycopeptide antibiotics” (American Cyanamid Company, priority 2001, dated 2012).
≈ marks a conversion by molar mass, not a printed value.

How the values were obtained:
Test in all cases: In vitro antibacterial evaluation: minimum inhibitory concentration (MIC), broth dilution method
Type in all cases: cell-based
Escherichia coli [1] = test system: Escherichia coli
Escherichia coli [2] = test system: Escherichia coli; remark: listed apart in the source
Method in brief: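 Broth dilution per NCCLS M7-A2 in Muller-Hinton II […], inoculum 5×10^5 CFU/mL, antibiotic tested over 64-0.06 μg/mL. MIC is taken as the lowest concentration that inhibits growth. Panel includes recent clinical isolates resistant to methicillin, penicillin and/or vancomycin.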

Enterococcus sp. = test system: Enterococcus sp.
Method in brief: (§1)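 An MIC is reported for each organism as the least concentration giving inhibition, using broth dilution over 64-0.06 μg/mL with a 5×10^5 CFU/mL inoculum.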

Streptococcus sp. = details: 18 hours at 35° C.
Method in brief: as §1

Staphylococcus sp. = details: 18 hours at 35° C.
Method in brief: as §1

Row | SMILES | MIC Escherichia coli (ATCC 25922) (Escherichia coli [1]) | MIC Escherichia coli (GC 4559) (Escherichia coli [2]) | MIC Escherichia coli (GC 4560) (Escherichia coli [2]) | MIC Enterococcus avium (GC 4558) (Enterococcus sp.) | MIC Enterococcus faecalis (ATCC 29212) (Enterococcus sp.) | MIC Enterococcus faecalis (GC 2242) (Enterococcus sp.; 18 hours at 35° C.) | MIC Enterococcus faecalis (GC 4552) (Enterococcus sp.; 18 hours at 35° C.) | MIC Enterococcus faecalis (GC 4553) (Enterococcus sp.) | MIC Enterococcus faecalis (GC 4554) (Enterococcus sp.) | MIC Enterococcus faecium (GC 2243) (Enterococcus sp.) | MIC Enterococcus faecium (GC 4556) (Enterococcus sp.) | MIC Enterococcus faecium (GC 4557) (Enterococcus sp.) | MIC Streptococcus agalactiae (GC 4564) (Streptococcus sp.) | MIC Coagulase Negative Staphylococcus (GC 4547) (Staphylococcus sp.) | MIC Coagulase Negative Staphylococcus (GC 4548) (Staphylococcus sp.) | MIC Coagulase Negative Staphylococcus (GC 4549) (Staphylococcus sp.) | MIC Coagulase Negative Staphylococcus (GC 4551) (Staphylococcus sp.) | MIC Staphylococcus aureus (ATCC 29213) (Staphylococcus sp.) | MIC Staphylococcus aureus (GC 1131) (Staphylococcus sp.) | MIC Staphylococcus aureus (GC 4541) (Staphylococcus sp.) | other results
1 | CC(c1ccccc1)C1NC(=O)CNC(=O)C(CO)NC(=O)C(C(O)C2CNC(=N)N2C2OC(CO)C(O)C(O)C2O)NC(=O)C(C(O)C2CNC(=N)N2)NC(=O)C(Cc2ccc(OC3OC(CO)C(OC4OC(COC(=O)NCc5ccccc5)C(O)C(O)C4O)C(O)C3O)cc2)NC1=O (stereo not drawn) [Example 257b, γ-O-[(Benzylamino)carbonyl]-cyclo[glycyl-β-methylphenylalanyl-O-(4-O-hexopyranosylhexopyranosyl)tyrosyl-3-(2-iminoimidazolidin-4-yl)seryl-3-(3-hexopyranosyl-2-iminoimidazolidin-4-yl)serylseryl]] | >0.5 mg/L | >0.5 mg/L | 0.5 mg/L (≈ 0.35 µM) | 0.5 mg/L (≈ 0.35 µM) | 0.5 mg/L (≈ 0.35 µM) | 0.5 mg/L (≈ 0.35 µM) | >0.5 mg/L | 0.5 mg/L (≈ 0.35 µM) | >0.5 mg/L | 16 mg/L (≈ 11.2 µM) | 16 mg/L (≈ 11.2 µM) | 2 mg/L (≈ 1.4 µM) | 1 mg/L (≈ 0.7 µM) | 2 mg/L (≈ 1.4 µM) | 2 mg/L (≈ 1.4 µM) | 2 mg/L (≈ 1.4 µM) | 4 mg/L (≈ 2.8 µM) | 0.5 mg/L (≈ 0.35 µM) | 0.5 mg/L (≈ 0.35 µM) | 0.5 mg/L (≈ 0.35 µM) | MIC Enterococcus faecalis (GC 2691) (Enterococcus sp.; Enterococcus faecalis (GC 2691), 18 hours at 35° C.): 0.5 mg/L (≈ 0.35 µM); MIC Enterococcus faecalis (GC 3059) (Enterococcus sp.; Enterococcus faecalis (GC 3059), 18 hours at 35° C.): 0.5 mg/L (≈ 0.35 µM); MIC Enterococcus faecalis (GC 6189) (Enterococcus sp.; Enterococcus faecalis (GC 6189)): 0.5 mg/L (≈ 0.35 µM); MIC Streptococcus pneumoniae (ATCC 6301) (Streptococcus sp.; Streptococcus pneumoniae (ATCC 6301)): 0.25 mg/L (≈ 0.175 µM); MIC Streptococcus pneumoniae (GC 1894) (Streptococcus sp.; Streptococcus pneumoniae (GC 1894)): 0.25 mg/L (≈ 0.175 µM); MIC Streptococcus pneumoniae (GC 4565) (Streptococcus sp.; Streptococcus pneumoniae (GC 4565)): 0.5 mg/L (≈ 0.35 µM); MIC Streptococcus pyogenes (GC 4563) (Streptococcus sp.; Streptococcus pyogenes (GC 4563)): 0.12 mg/L (≈ 0.084 µM); MIC Coagulase Negative Staphylococcus (GC 6257) (Staphylococcus sp.; Coagulase Negative Staphylococcus (GC 6257)): 1 mg/L (≈ 0.7 µM); MIC Staphylococcus aureus (GC 3051) (Staphylococcus sp.; Staphylococcus aureus (GC 3051)): 0.5 mg/L (≈ 0.35 µM); MIC Staphylococcus aureus (GC 3053) (Staphylococcus sp.; Staphylococcus aureus (GC 3053)): 0.5 mg/L (≈ 0.35 µM); MIC Staphylococcus aureus (GC 4542) (Staphylococcus sp.): 0.5 mg/L (≈ 0.35 µM); MIC Staphylococcus aureus (GC 4544) (Staphylococcus sp.): 0.5 mg/L (≈ 0.35 µM); MIC Staphylococcus aureus (GC 4545) (Staphylococcus sp.): 0.5 mg/L (≈ 0.35 µM); MIC Staphylococcus aureus-SMITH (GC 4543) (Staphylococcus sp.): 0.5 mg/L (≈ 0.35 µM); MIC Staphylococcus haemolyticus (GC 4546) (Staphylococcus sp.): 2 mg/L (≈ 1.4 µM)
2 | CC(C)CC(=O)OC1C(OC2C(CO)OC(Oc3ccc(CC4NC(=O)C(C(C)c5ccc(F)cc5)NC(=O)CNC(=O)C(CO)NC(=O)C(C(O)C5CNC(=N)N5C5OC(CO)C(O)C(O)C5O)NC(=O)C(C(O)C5CNC(=N)N5)NC4=O)cc3)C(O)C2O)OC(CO)C(O)C1O (stereo not drawn) [Example 261b, Cyclo[glycyl-4-fluoro-β-methylphenylalanyl-O-[4-O-[2-O-(3-methylbutanoyl)hexopyranosyl]-hexopyranosyl]tyrosyl-3-(2-iminoimidazolidin-4-yl)seryl-3-(3-hexopyranosyl-2-imino-imidazolidin-4-yl)serylseryl]] | >64 mg/L | >64 mg/L | 4 mg/L (≈ 2.86 µM) | 64 mg/L (≈ 45.8 µM) | >64 mg/L | 64 mg/L (≈ 45.8 µM) | 64 mg/L (≈ 45.8 µM) | 64 mg/L (≈ 45.8 µM) | >64 mg/L | >64 mg/L | 64 mg/L (≈ 45.8 µM) | 16 mg/L (≈ 11.4 µM) | 8 mg/L (≈ 5.72 µM) | 8 mg/L (≈ 5.72 µM) | 4 mg/L (≈ 2.86 µM) | 4 mg/L (≈ 2.86 µM) | 8 mg/L (≈ 5.72 µM) | 8 mg/L (≈ 5.72 µM) | 16 mg/L (≈ 11.4 µM) | 16 mg/L (≈ 11.4 µM) | MIC Streptococcus pyogenes (ID-3187) (Streptococcus sp.): 4 mg/L (≈ 2.86 µM); MIC Staphylococcus aureus (GC 4542) (Staphylococcus sp.): 16 mg/L (≈ 11.4 µM); MIC Staphylococcus aureus (GC 4544) (Staphylococcus sp.): 8 mg/L (≈ 5.72 µM); MIC Staphylococcus aureus (GC 4545) (Staphylococcus sp.): 16 mg/L (≈ 11.4 µM); MIC Staphylococcus aureus-SMITH (GC 4543) (Staphylococcus sp.): 8 mg/L (≈ 5.72 µM); MIC Staphylococcus haemolyticus (GC 4546) (Staphylococcus sp.): 8 mg/L (≈ 5.72 µM)
3 | CC(C)CC(=O)OC1C(OC2C(CO)OC(Oc3ccc(CC4NC(=O)C(C(C)c5cccc(F)c5)NC(=O)CNC(=O)C(CO)NC(=O)C(C(O)C5CNC(=N)N5C5OC(CO)C(O)C(O)C5O)NC(=O)C(C(O)C5CNC(=N)N5)NC4=O)cc3)C(O)C2O)OC(CO)C(O)C1O (stereo not drawn) [Example 264a] | 64 mg/L (≈ 45.8 µM) | >64 mg/L | 4 mg/L (≈ 2.86 µM) | >64 mg/L | 64 mg/L (≈ 45.8 µM) | 64 mg/L (≈ 45.8 µM) | >64 mg/L | >64 mg/L | >64 mg/L | >64 mg/L | 64 mg/L (≈ 45.8 µM) | 32 mg/L (≈ 22.9 µM) | 8 mg/L (≈ 5.72 µM) | 8 mg/L (≈ 5.72 µM) | 4 mg/L (≈ 2.86 µM) | 4 mg/L (≈ 2.86 µM) | 16 mg/L (≈ 11.4 µM) | 16 mg/L (≈ 11.4 µM) | 16 mg/L (≈ 11.4 µM) | 16 mg/L (≈ 11.4 µM) | MIC Streptococcus pyogenes (ID-3187) (Streptococcus sp.): 4 mg/L (≈ 2.86 µM); MIC Coagulase Negative Staphylococcus (GC 4547) (Staphylococcus sp.; broth dilution): 8 mg/L (≈ 5.72 µM); MIC Coagulase Negative Staphylococcus (GC 4548) (Staphylococcus sp.; broth dilution): 4 mg/L (≈ 2.86 µM); MIC Coagulase Negative Staphylococcus (GC 4549) (Staphylococcus sp.; broth dilution): 4 mg/L (≈ 2.86 µM); MIC Coagulase Negative Staphylococcus (GC 4551) (Staphylococcus sp.; broth dilution): 16 mg/L (≈ 11.4 µM); MIC Staphylococcus aureus (ATCC 29213) (Staphylococcus sp.; broth dilution): 16 mg/L (≈ 11.4 µM); MIC Staphylococcus aureus (GC 1131) (Staphylococcus sp.; broth dilution): 16 mg/L (≈ 11.4 µM); MIC Staphylococcus aureus (GC 4541) (Staphylococcus sp.; broth dilution): 16 mg/L (≈ 11.4 µM); MIC Staphylococcus aureus (GC 4542) (Staphylococcus sp.): 16 mg/L (≈ 11.4 µM); MIC Staphylococcus aureus (GC 4542) (Staphylococcus sp.; broth dilution): 16 mg/L (≈ 11.4 µM); MIC Staphylococcus aureus (GC 4544) (Staphylococcus sp.): 8 mg/L (≈ 5.72 µM); MIC Staphylococcus aureus (GC 4544) (Staphylococcus sp.; broth dilution): 8 mg/L (≈ 5.72 µM); MIC Staphylococcus aureus (GC 4545) (Staphylococcus sp.): 8 mg/L (≈ 5.72 µM); MIC Staphylococcus aureus (GC 4545) (Staphylococcus sp.; broth dilution): 8 mg/L (≈ 5.72 µM); MIC Staphylococcus aureus-SMITH (GC 4543) (Staphylococcus sp.): 8 mg/L (≈ 5.72 µM); MIC Staphylococcus aureus-SMITH (GC 4543) (Staphylococcus sp.; broth dilution): 8 mg/L (≈ 5.72 µM); MIC Staphylococcus haemolyticus (GC 4546) (Staphylococcus sp.): 8 mg/L (≈ 5.72 µM); MIC Staphylococcus haemolyticus (GC 4546) (Staphylococcus sp.; broth dilution): 8 mg/L (≈ 5.72 µM)
